Ki data for 18 compounds are collected here from patent publication US20260193293A1, “PEPTIDES CAPABLE OF INHIBITING PROTEIN-PROTEIN INTERACTIONS AT GABAB1A SUBUNIT AND USES THEREOF” (UNIVERSITY OF COPENHAGEN, priority 2022, published 2026).

Residues, ends and D or L forms follow the SMILES beside them.

The target of one assay is Sushi domains (SD1/2) protein. The experiment in a line: Fluorescence polarization (FP) competition assay with AJAP-1probe, calculated Ki. Format: binding. As to conditions: Table 8, Ala-, D-amino acids and N-methylation scans of AJAP-1WT; read-out: Ki (nM) mean ± SEM. The gist of the method: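 Ki values were derived from IC50s (sigmoidal fits, ≥ triplicate), with probe Kd obtained by saturation titration of SD1/2. Peptides displaced a 25 nM TAMRA-labelled probe; polarization read at 530/580 nm in 1% BSA-containing PBS, pH 7.4, room temperature.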
In general, Ki refers to a measure of affinity in units of concentration, obtained from inhibition or displacement. With `CC[C@H](C)[C@H](NC(=O)[C@H](Cc1ccccc1)NC(=O)[C@H](CCC(=O)O)NC(=O)[C@@H](NC(=O)[C@H](CCC(=O)O)NC(C)=O)[C@@H](C)O)C(=O)N[C@@H](C)C(=O)N[C@@H](Cc1c[nH]c2ccccc12)C(=O)NCC(=O)N1CCC[C@H]1C(=O)N[C@H](C(=O)NCC(=O)N[C@@H](CC(=O)O)C(=O)N[C@@H](CCC(=O)O)C(=O)N[C@@H](CC(=O)O)C(N)=O)[C@@H](C)CC` [ETEFIAWGPIGDED] (Ac-ETEFIAWGPIGDED-NH2), the Ki is 48 ± 2 nM.
Same read-out and setting: next, `CC[C@H](C)[C@H](NC(=O)[C@H](Cc1ccccc1)NC(=O)[C@H](CCC(=O)O)NC(=O)[C@@H](NC(=O)[C@H](CCC(=O)O)NC(C)=O)[C@@H](C)O)C(=O)N[C@@H](C)C(=O)N[C@@H](Cc1c[nH]c2ccccc12)C(=O)NCC(=O)N1CCC[C@H]1C(=O)N[C@H](C(=O)NCC(=O)N[C@@H](C)C(=O)N[C@@H](CCC(=O)O)C(=O)N[C@@H](CC(=O)O)C(N)=O)[C@@H](C)O` [ETEFIAWGPTGAED] (Ac-ETEFIAWGPTGAED-NH2): 50 ± 1 nM.

Still in this assay, the particulars now being: Table 11, cells printed in μM; read-out: Ki (nM) mean ± SEM.
Regarding `CC[C@H](C)[C@H](NC(=O)[C@H](Cc1ccccc1)NC(=O)[C@H](CCC(=O)O)NC(=O)[C@@H](NC(=O)[C@H](CCC(=O)O)NC(C)=O)[C@@H](C)O)C(=O)N1CCC[C@H]1C(=O)N[C@@H](Cc1c[nH]c2ccccc12)C(=O)NCC(=O)N1CCC[C@H]1C(=O)N[C@H](C(=O)NCC(=O)N[C@@H](CC(=O)O)C(=O)N[C@@H](CCC(=O)O)C(=O)N[C@@H](CC(=O)O)C(N)=O)[C@@H](C)O` [ETEFIPWGPTGDED] (Ac-ETEFIPWGPTGDED-NH2), the Ki was greater than 6250 nM.
On the same count and under the same terms, next, `CC[C@H](C)[C@H](NC(=O)[C@H](CCCCN)NC(=O)[C@H](CCC(=O)O)NC(=O)[C@@H](NC(=O)[C@H](CCC(=O)O)NC(C)=O)[C@@H](C)O)C(=O)N[C@@H](C)C(=O)N[C@@H](Cc1c[nH]c2ccccc12)C(=O)NCC(=O)N1CCC[C@H]1C(=O)N[C@H](C(=O)NCC(=O)N[C@@H](CC(=O)O)C(=O)N[C@@H](CCC(=O)O)C(=O)N[C@@H](CC(=O)O)C(N)=O)[C@@H](C)O` [ETEKIAWGPTGDED] (Ac-ETEKIAWGPTGDED-NH2): greater than 6250 nM.

The same assay, now with this note: Table 11, deep mutational scanning validation variants of AJAP-1WT; read-out: Ki (nM) mean ± SEM.
For the compound `CC[C@H](C)[C@H](NC(=O)[C@H](Cc1ccccc1)NC(=O)[C@H](CCC(=O)O)NC(=O)[C@@H](NC(=O)[C@H](CCC(=O)O)NC(C)=O)[C@@H](C)O)C(=O)N[C@@H](C)C(=O)N[C@@H](Cc1c[nH]c2ccccc12)C(=O)NCC(=O)N1CCC[C@H]1C(=O)N[C@@H](CO)C(=O)NCC(=O)N[C@@H](CC(=O)O)C(=O)N[C@@H](CCC(=O)O)C(=O)N[C@@H](CC(=O)O)C(N)=O` [ETEFIAWGPSGDED] (Ac-ETEFIAWGPSGDED-NH2), the Ki was 32 ± 1 nM.
On the same count and under the same terms, next, `CC[C@H](C)[C@H](NC(=O)[C@H](Cc1ccccc1)NC(=O)[C@H](CCC(=O)O)NC(=O)[C@@H](NC(=O)[C@H](CCC(=O)O)NC(C)=O)[C@@H](C)O)C(=O)N[C@@H](C)C(=O)N[C@@H](Cc1c[nH]c2ccccc12)C(=O)NCC(=O)N1CCC[C@H]1C(=O)N[C@H](C(=O)N[C@@H](Cc1ccccc1)C(=O)N[C@@H](CC(=O)O)C(=O)N[C@@H](CCC(=O)O)C(=O)N[C@@H](CC(=O)O)C(N)=O)[C@@H](C)O` [ETEFIAWGPTFDED]: 46 ± 2 nM; `CC[C@H](C)[C@H](NC(=O)[C@H](Cc1ccccc1)NC(=O)[C@H](CCC(=O)O)NC(=O)[C@@H](NC(=O)[C@H](CCC(=O)O)NC(C)=O)[C@@H](C)O)C(=O)N[C@@H](C)C(=O)N[C@@H](Cc1c[nH]c2ccccc12)C(=O)NCC(=O)N1CCC[C@H]1C(=O)N[C@H](C(=O)NCC(=O)N[C@@H](Cc1c[nH]cn1)C(=O)N[C@@H](CCC(=O)O)C(=O)N[C@@H](CC(=O)O)C(N)=O)[C@@H](C)O` [ETEFIAWGPTGHED] (Ac-ETEFIAWGPTGHED-NH2): 60 ± 4 nM; `CC[C@H](C)[C@H](NC(=O)[C@H](Cc1ccccc1)NC(=O)[C@H](CCC(=O)O)NC(=O)[C@@H](NC(=O)[C@H](CCC(=O)O)NC(C)=O)[C@@H](C)O)C(=O)N[C@@H](C)C(=O)N[C@@H](Cc1c[nH]c2ccccc12)C(=O)NCC(=O)N1CCC[C@H]1C(=O)N[C@H](C(=O)NCC(=O)N[C@@H](Cc1ccc(O)cc1)C(=O)N[C@@H](CCC(=O)O)C(=O)N[C@@H](CC(=O)O)C(N)=O)[C@@H](C)O` [ETEFIAWGPTGYED] (Ac-ETEFIAWGPTGYED-NH2): 41 ± 1 nM.
On the same count and under the same terms, the result for `CC[C@H](C)[C@H](NC(=O)[C@H](Cc1ccccc1)NC(=O)[C@H](CCC(=O)O)NC(=O)[C@@H](NC(=O)[C@H](CCC(=O)O)NC(C)=O)[C@@H](C)O)C(=O)N[C@@H](C)C(=O)N[C@@H](Cc1c[nH]c2ccccc12)C(=O)NCC(=O)N1CCC[C@H]1C(=O)N[C@H](C(=O)N[C@@H](Cc1c[nH]cn1)C(=O)N[C@@H](CC(=O)O)C(=O)N[C@@H](CCC(=O)O)C(=O)N[C@@H](CC(=O)O)C(N)=O)[C@@H](C)O` [ETEFIAWGPTHDED] (Ac-ETEFIAWGPTHDED-NH2) reads 30 ± 1 nM; that for `CC[C@H](C)[C@H](NC(=O)[C@H](Cc1ccccc1)NC(=O)[C@H](CCC(=O)O)NC(=O)[C@@H](NC(=O)[C@H](CCC(=O)O)NC(C)=O)[C@@H](C)O)C(=O)N[C@@H](C)C(=O)N[C@@H](Cc1c[nH]c2ccccc12)C(=O)NCC(=O)N1CCC[C@H]1C(=O)N[C@H](C(=O)N[C@@H](CCCNC(=N)N)C(=O)N[C@@H](CC(=O)O)C(=O)N[C@@H](CCC(=O)O)C(=O)N[C@@H](CC(=O)O)C(N)=O)[C@@H](C)O` [ETEFIAWGPTRDED] (Ac-ETEFIAWGPTRDED-NH2), 32 ± 1 nM.
On to `CC[C@H](C)[C@H](NC(=O)[C@H](Cc1ccccc1)NC(=O)[C@H](CCC(=O)O)NC(=O)[C@@H](NC(=O)[C@H](CCC(=O)O)NC(C)=O)[C@@H](C)O)C(=O)N[C@@H](C)C(=O)N[C@@H](Cc1c[nH]c2ccccc12)C(=O)N[C@@H](Cc1c[nH]cn1)C(=O)N1CCC[C@H]1C(=O)N[C@H](C(=O)NCC(=O)N[C@@H](CC(=O)O)C(=O)N[C@@H](CCC(=O)O)C(=O)N[C@@H](CC(=O)O)C(N)=O)[C@@H](C)O` [ETEFIAWHPTGDED] (Ac-ETEFIAWHPTGDED-NH2), for which the Ki is 240 ± 7 nM.
In the case of `CC[C@H](C)[C@H](NC(=O)[C@H](Cc1ccccc1)NC(=O)[C@H](CCC(=O)O)NC(=O)[C@@H](NC(=O)[C@H](CCC(=O)O)NC(C)=O)[C@@H](C)O)C(=O)N[C@@H](C)C(=O)N[C@@H](Cc1c[nH]c2ccccc12)C(=O)N[C@@H](Cc1ccc(O)cc1)C(=O)N1CCC[C@H]1C(=O)N[C@H](C(=O)NCC(=O)N[C@@H](CC(=O)O)C(=O)N[C@@H](CCC(=O)O)C(=O)N[C@@H](CC(=O)O)C(N)=O)[C@@H](C)O` [ETEFIAWYPTGDED] (Ac-ETEFIAWYPTGDED-NH2), the Ki was 199 ± 10 nM.
On the same count and under the same terms, the result for `CC[C@H](C)[C@H](NC(=O)[C@H](Cc1ccccc1)NC(=O)[C@H](CCC(=O)O)NC(=O)[C@@H](NC(=O)[C@H](CCC(=O)O)NC(C)=O)[C@@H](C)O)C(=O)N[C@@H](Cc1c[nH]cn1)C(=O)N[C@@H](Cc1c[nH]c2ccccc12)C(=O)NCC(=O)N1CCC[C@H]1C(=O)N[C@H](C(=O)NCC(=O)N[C@@H](CC(=O)O)C(=O)N[C@@H](CCC(=O)O)C(=O)N[C@@H](CC(=O)O)C(N)=O)[C@@H](C)O` [ETEFIHWGPTGDED] (Ac-ETEFIHWGPTGDED-NH2) reads 24 ± 1 nM.
The same measure, in the same setting: the result for `CC[C@H](C)[C@H](NC(=O)[C@H](Cc1ccccc1)NC(=O)[C@H](CCC(=O)O)NC(=O)[C@@H](NC(=O)[C@H](CCC(=O)O)NC(C)=O)[C@@H](C)O)C(=O)N[C@H](C(=O)N[C@@H](Cc1c[nH]c2ccccc12)C(=O)NCC(=O)N1CCC[C@H]1C(=O)N[C@H](C(=O)NCC(=O)N[C@@H](CC(=O)O)C(=O)N[C@@H](CCC(=O)O)C(=O)N[C@@H](CC(=O)O)C(N)=O)[C@@H](C)O)C(C)C` [ETEFIVWGPTGDED] (Ac-ETEFIVWGPTGDED-NH2) reads 30 ± 1 nM; that for `CC[C@H](C)[C@H](NC(=O)[C@H](Cc1c[nH]c2ccccc12)NC(=O)[C@H](CCC(=O)O)NC(=O)[C@@H](NC(=O)[C@H](CCC(=O)O)NC(C)=O)[C@@H](C)O)C(=O)N[C@@H](C)C(=O)N[C@@H](Cc1c[nH]c2ccccc12)C(=O)NCC(=O)N1CCC[C@H]1C(=O)N[C@H](C(=O)NCC(=O)N[C@@H](CC(=O)O)C(=O)N[C@@H](CCC(=O)O)C(=O)N[C@@H](CC(=O)O)C(N)=O)[C@@H](C)O` [ETEWIAWGPTGDED] (Ac-ETEWIAWGPTGDED-NH2), 35 ± 2 nM; that for `CC[C@H](C)[C@H](NC(=O)[C@H](Cc1ccc(O)cc1)NC(=O)[C@H](CCC(=O)O)NC(=O)[C@@H](NC(=O)[C@H](CCC(=O)O)NC(C)=O)[C@@H](C)O)C(=O)N[C@@H](C)C(=O)N[C@@H](Cc1c[nH]c2ccccc12)C(=O)NCC(=O)N1CCC[C@H]1C(=O)N[C@H](C(=O)NCC(=O)N[C@@H](CC(=O)O)C(=O)N[C@@H](CCC(=O)O)C(=O)N[C@@H](CC(=O)O)C(N)=O)[C@@H](C)O` [ETEYIAWGPTGDED, Ac-ETEYIAWGPTGDED-NH2] (Ac-ETEYIAWGPTGDED-NH2), 18 ± 1 nM.

The assay is the same for the next values; noted with them: Table 13, peptides for affinity maturation; read-out: Ki (nM) mean ± SEM.
With `CC[C@H](C)[C@H](NC(=O)[C@H](Cc1ccccc1)NC(=O)[C@H](CCC(=O)O)NC(=O)[C@@H](NC(=O)[C@H](CCC(=O)O)NC(C)=O)[C@@H](C)O)C(=O)N[C@@H](C)C(=O)N[C@@H](Cc1c[nH]c2ccccc12)C(=O)NCC(=O)N1CCC[C@H]1C(=O)N[C@H](C(=O)N[C@H](C(=O)N[C@@H](CO)C(=O)N[C@@H](CCCNC(=N)N)C(=O)N[C@@H](CCC(=O)O)C(=O)N[C@@H](CC(=O)O)C(N)=O)C(C)C)[C@@H](C)O` [ETEFIAWGPTVSRED] (Ac-ETEFIAWGPTVSRED-NH2), the Ki was 148 ± 6 nM.
Still for that read-out and setting: the result for `CC[C@H](C)[C@H](NC(=O)[C@H](Cc1ccccc1)NC(=O)[C@H](CCC(=O)O)NC(=O)[C@@H](NC(=O)[C@H](CCC(=O)O)NC(C)=O)[C@@H](C)O)C(=O)N[C@@H](C)C(=O)N[C@@H](Cc1c[nH]c2ccccc12)C(=O)N[C@@H](Cc1ccc(O)cc1)C(=O)NCC(=O)N1CCC[C@H]1C(=O)N[C@H](C(=O)NCC(=O)N[C@@H](CC(=O)O)C(=O)N[C@@H](CCC(=O)O)C(=O)N[C@@H](CC(=O)O)C(N)=O)[C@@H](C)O` [ETEFIAWYGPTGDED] (Ac-ETEFIAWYGPTGDED-NH2) reads 195 ± 7 nM.
Still for that read-out and setting: next, `CC[C@H](C)[C@H](NC(=O)[C@H](Cc1ccccc1)NC(=O)[C@H](CCC(=O)O)NC(=O)[C@@H](NC(=O)[C@H](CCC(=O)O)NC(C)=O)[C@@H](C)O)C(=O)N[C@@H](C)C(=O)N[C@@H](Cc1c[nH]c2ccccc12)C(=O)N[C@@H](Cc1ccc(O)cc1)C(=O)N1CCC[C@H]1C(=O)N[C@H](C(=O)NCC(=O)N[C@@H](CC(=O)O)C(=O)N[C@@H](CCC(=O)O)C(=O)N[C@@H](CC(=O)O)C(N)=O)[C@@H](C)O` [ETEFIAWYPTGDED] (Ac-ETEFIAWYPTGDED-NH2): 199 ± 10 nM.
